Assay: photoluminescence quantum yield (fraction); solvent given as SMILES

**Q.** With `COc1ccc(-c2nnc(-c3cc(-c4nnc(-c5ccc(OC)cc5)o4)c(-n4c5ccccc5c5ccccc54)cc3-n3c4ccccc4c4ccccc43)o2)cc1` as the compound, how does the photoluminescence quantum yield (in Cc1ccccc1) read?
**A.** The photoluminescence quantum yield was 0.133.

**Q.** What about the photoluminescence quantum yield (in O=P(c1ccccc1)(c1ccccc1)c1ccccc1Oc1ccccc1P(=O)(c1ccccc1)c1ccccc1) of the same compound?
**A.** The photoluminescence quantum yield was 0.354.

**Q.** With `CC(C)(C)c1ccc(-c2c3c(c(-c4ccc(C(C)(C)C)cc4)c4cc5ccccc5cc24)Cc2c(c(-c4ccc(C(C)(C)C)cc4)c4cc5ccccc5cc4c2-c2ccc(C(C)(C)C)cc2)C3)cc1` as the compound, how does the photoluminescence quantum yield (in ClCCl) read?
**A.** The photoluminescence quantum yield was 0.15.

**Q.** For `Cc1ccc2cc(C)ccc2c1`, which photoluminescence quantum yield (in C1CCCCC1) is on record?
**A.** The photoluminescence quantum yield was 0.59.

**Q.** With `O=Cc1nc2ccc(C#Cc3ccc(N(c4ccc(C#Cc5ccc6nc(C=O)sc6c5)cc4)c4ccc(C#Cc5ccc6nc(C=O)sc6c5)cc4)cc3)cc2s1` as the compound, how does the photoluminescence quantum yield (in Cc1ccccc1) read?
**A.** Its photoluminescence quantum yield is 0.65.

**Q.** Which photoluminescence quantum yield (in C1CCOC1) does the source give for `N#Cc1ccc(C=C(c2ccccc2)c2ccccc2)cc1` here?
**A.** The photoluminescence quantum yield was 0.046.

**Q.** Which photoluminescence quantum yield (in ClCCl) does the source give for `Cc1nc(-c2cc(C(F)(F)F)ccc2O)n2c1CCCC2` here?
**A.** Its photoluminescence quantum yield is 0.61.

**Q.** Which photoluminescence quantum yield (in ClC(Cl)Cl) does the source give for `CC(C)(C)NC(=O)c1c([Si](C)(C)C)cc2ccc3cccc4ccc1c2c34` here?
**A.** Its photoluminescence quantum yield is 0.151.

**Q.** Which photoluminescence quantum yield (in C1CCCCC1) does the source give for `CCC1=C(C)C2=Cc3cc(I)c(I)n3[B-](F)(F)[N+]2=C1C` here?
**A.** The photoluminescence quantum yield was 0.26.

**Q.** What about the photoluminescence quantum yield (in CC(C)=O) of the same compound?
**A.** Its photoluminescence quantum yield is 0.16.

**Q.** What about the photoluminescence quantum yield (in CCO) of the same compound?
**A.** Its photoluminescence quantum yield is 0.2.

**Q.** And the photoluminescence quantum yield (in CCOC(C)=O)?
**A.** The photoluminescence quantum yield was 0.19.

**Q.** What about the photoluminescence quantum yield (in CO) of the same compound?
**A.** Its photoluminescence quantum yield is 0.17.

**Q.** And the photoluminescence quantum yield (in OCC(F)(F)F)?
**A.** The photoluminescence quantum yield was 0.12.

**Q.** What does the source list for `C[N+]1=C(/C=C/C2=C3Oc4c(cc5c6c4CCCN6CCC5)C(c4ccccc4C(=O)O)=C3CCC2)C(C)(C)c2c1ccc1ccccc21`?
**A.** photoluminescence quantum yield (in CC#N): 0.2; photoluminescence quantum yield (in CCO): 0.29; photoluminescence quantum yield (in CO): 0.3; photoluminescence quantum yield (in ClC(Cl)Cl): 0.46

**Q.** For `CCCCCCc1ccc(-n2c3c4cccc(OC)c4nnc3c3c2c2nnc4c(OC)cccc4c2n3-c2ccc(CCCCCC)cc2)cc1`, which photoluminescence quantum yield (in Cc1ccccc1) is on record?
**A.** The photoluminescence quantum yield was 0.

**Q.** What does the source list for `O=Cc1cnc(-c2c3ccccc3cc3ccccc23)nc1`?
**A.** photoluminescence quantum yield (in CCO): 0.25; photoluminescence quantum yield (in ClCCl): 0.28

**Q.** For `CN(C)c1ccc(C#Cc2cc3ccccc3oc2=O)cc1`, which photoluminescence quantum yield (in ClCCl) is on record?
**A.** The photoluminescence quantum yield was 0.009.

**Q.** Which results are given for `CCC1=C(C)C(=O)n2c1cc1c(C)c(CC(=O)O)c(C)n1c2=O`?
**A.** photoluminescence quantum yield (in CO): 0.91; photoluminescence quantum yield (in CS(C)=O): 1; photoluminescence quantum yield (in ClC(Cl)Cl): 0.96; photoluminescence quantum yield (in c1ccccc1): 0.88

**Q.** With `Clc1cnc2nn3ccccc3c2n1` as the compound, how does the photoluminescence quantum yield (in C1CCOC1) read?
**A.** Its photoluminescence quantum yield is 0.38.

**Q.** Which photoluminescence quantum yield (in Cc1ccccc1) does the source give for `CCCCC(CC)CN1C(=O)C2=C(c3ccc(-c4ccc(C5=C6C(C)=CC(C)=[N+]6[B-](F)(F)n6c(C)cc(C)c65)cc4)s3)N(CC(CC)CCCC)C(=O)C2=C1c1cccs1` (centres undefined) here?
**A.** Its photoluminescence quantum yield is 0.57.

**Q.** What does the source list for `Cc1cc(O)c(-c2[nH]c(=O)n3c2-c2ccccc2C3=O)cc1Cl`?
**A.** photoluminescence quantum yield (in CC#N): 0.56; photoluminescence quantum yield (in CO): 0.3; photoluminescence quantum yield (in ClCCl): 0.61

**Q.** What does the source list for `CC1=[N+]2C(=C(NC(C)c3ccccc3)c3ccc(C)n3[B-]2(F)F)C=C1c1cc2n(c1)[B-](F)(F)[N+]1=CC=CC1=C2c1c(C)cc(C)cc1C` (centres undefined)?
**A.** photoluminescence quantum yield (in C1CCCCC1): 0.31; photoluminescence quantum yield (in CCOC(C)=O): 0.05

**Q.** For `CN(C)c1ccc(/C=C/C=C/c2ccc(C#N)cc2)cc1`, which photoluminescence quantum yield (in C1CCOC1) is on record?
**A.** Its photoluminescence quantum yield is 0.098.

**Q.** And the photoluminescence quantum yield (in CC#N)?
**A.** The photoluminescence quantum yield was 0.223.

**Q.** What about the photoluminescence quantum yield (in CCCC#N) of the same compound?
**A.** The photoluminescence quantum yield was 0.125.

**Q.** And the photoluminescence quantum yield (in CCCCCC)?
**A.** Its photoluminescence quantum yield is 0.059.

**Q.** And the photoluminescence quantum yield (in CCCCOCCCC)?
**A.** Its photoluminescence quantum yield is 0.068.

**Q.** What about the photoluminescence quantum yield (in CCO) of the same compound?
**A.** The photoluminescence quantum yield was 0.187.

**Q.** And the photoluminescence quantum yield (in CCOCC)?
**A.** Its photoluminescence quantum yield is 0.085.

**Q.** Which photoluminescence quantum yield (in ClCCl) does the source give for `c1ccc2cc(-c3c4ccccc4c(-c4nccc5ccccc45)c4ccccc34)ccc2c1` here?
**A.** Its photoluminescence quantum yield is 0.57.

**Q.** With `CC(C)(C)c1ccc(C#Cc2c(C#Cc3ccc(C(C)(C)C)cc3)c3cccc4c(C#Cc5ccc(C(C)(C)C)cc5)c(C#Cc5ccc(C(C)(C)C)cc5)c5cccc2c5c34)cc1` as the compound, how does the photoluminescence quantum yield (in ClCCl) read?
**A.** The photoluminescence quantum yield was 0.7.

**Q.** For `CCCCCCN1C(=O)c2cccc3cc(/N=C\c4c[nH]c5c4ccc4ccccc45)cc(c23)C1=O`, which photoluminescence quantum yield (in ClC(Cl)Cl) is on record?
**A.** The photoluminescence quantum yield was 0.073.

**Q.** For `CCCCN1C(=O)c2ccc3c4ccc5c6c(cc(Br)c(c7ccc(c2c37)C1=O)c64)C(=O)N(CCCC)C5=O`, which photoluminescence quantum yield (in ClCCl) is on record?
**A.** Its photoluminescence quantum yield is 0.92.

**Q.** With `CC1(C)CC(NCc2ccc3ccc4cccc5ccc2c3c45)CC(C)(C)N1` as the compound, how does the photoluminescence quantum yield (in C1CCCCC1) read?
**A.** Its photoluminescence quantum yield is 0.55.

**Q.** And the photoluminescence quantum yield (in CC#N)?
**A.** The photoluminescence quantum yield was 0.04.

**Q.** What about the photoluminescence quantum yield (in CO) of the same compound?
**A.** Its photoluminescence quantum yield is 0.14.

**Q.** What about the photoluminescence quantum yield (in ClC(Cl)Cl) of the same compound?
**A.** Its photoluminescence quantum yield is 0.08.

**Q.** Which photoluminescence quantum yield (in CC#N) does the source give for `c1cc2c3c(cccc3c1)C(N1CCOCCOCCN(C3=Nc4cccc5cccc3c45)CCOCC1)=N2` here?
**A.** The photoluminescence quantum yield was 0.0051.
